{"source": "patent US9238611B2", "about": "“Process for separating aryl carboxylic acids” (Reliance Industries Limited, priority 2012, dated 2016)", "origin": "cited, not measured here", "settings": "per one milligram of the terephthalate salt"}
{"smiles": "COc1ccc2c3c1O[C@H]1C(=O)CC[C@@]4(O)[C@@H](C2)N(C)CC[C@]314.COc1ccc2c3c1O[C@H]1C(=O)CC[C@@]4(O)[C@@H](C2)N(C)CC[C@]314.O=C(O)c1ccc(C(=O)O)cc1", "note": "[terephthalas oxycodonae]", "values": [{"measurement": "amount of hydrochloridum oxycodonae pharmacologically equivalent to one milligram", "value": 1.13, "unit": "mg"}]}
